Measurements as given in PubChem BioAssay (NCI).
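Five concentrations, 48 hours, 96-well plates. Definition used: TGI = concentration required for complete inhibition of growth.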

Key:
Experiment in all cases: DTP human tumour cell line panel, 48 h
SK-OV-3 ovarian = tested on: SK-OV-3 ovarian
HCT-15 colon = tested on: HCT-15 colon
DU-145 prostate = tested on: DU-145 prostate
HCC-2998 colon = tested on: HCC-2998 colon
SK-MEL-5 melanoma = tested on: SK-MEL-5 melanoma
CAKI-1 renal = tested on: CAKI-1 renal
786-0 renal = tested on: 786-0 renal
PC-3 prostate = tested on: PC-3 prostate
EKVX NSCLC = tested on: EKVX NSCLC
OVCAR-4 ovarian = tested on: OVCAR-4 ovarian

Row | SMILES | TGI (SK-OV-3 ovarian) [µM] | TGI (HCT-15 colon) [µM] | TGI (DU-145 prostate) [µM] | TGI (HCC-2998 colon) [µM] | TGI (SK-MEL-5 melanoma) [µM] | TGI (CAKI-1 renal) [µM] | TGI (786-0 renal) [µM] | TGI (PC-3 prostate) [µM] | TGI (EKVX NSCLC) [µM] | TGI (OVCAR-4 ovarian) [µM]
1 | Cc1c(-c2ccccc2)c(C#N)c2nnn(-c3ccccc3)c(=O)n12 | > 100 | > 100 | > 100 | > 100 | > 100 | > 100 | > 100 | > 100 | > 100 | > 100
2 | O=C(O)CC(NC(=O)Nc1ccc([N+](=O)[O-])cc1)C(=O)Nc1ccc([N+](=O)[O-])cc1 (stereo not given) | > 100 | > 100 | > 100 | > 100 | > 100 | > 100 | > 100 | > 100 | > 100 | > 100
3 | COc1cc2c(cc1OCCCC(=O)Nc1cc(C(=O)Nc3cc(C(=O)Nc4cc(C(=O)NCCCN(C)C)n(C)c4)n(C)c3)n(C)c1)N=C[C@@H]1CCCN1C2=O | 28.4 | 3.86 | 10.2 | 28.2 | 6.65 | 1.26 | 2.37 | 6 | 7.57 | 3.15
4 | O=C(Nc1ccccc1)c1cc2c(cc1Cl)Sc1nccn1S2(=O)=O | > 100 | > 75.3 | 40.5 | 37.7 | 31.1 | 7.53 | 71.4 | > 70.1 | 60.5 | 99.9
5 | COc1ccc2c(c1)OCC1(O)Cc3ccccc3OC21 (stereo not given) | > 100 | > 100 | > 100 | > 100 | > 100 | > 100 | > 100 | > 100 | > 100 | > 100
6 | CCCC1NC(C#N)(C#N)C(CCC)NC1(C#N)C#N (stereo not given) | > 100 | > 39.2 | > 43.1 | > 58.2 | > 100 | > 50.4 | > 33.5 | > 88.7 | > 100 | > 100
7 | O=C1Cc2c(-c3ccc(Cl)cc3)cc(-c3ccccc3)nc2-c2ccccc2N1 | 18.8 | > 44.8 | > 61.4 | 24.2 | 21 | 19.4 | 4.92 | > 100 | > 56.8 | 26.4
8 | CC1(C)CCC[C@]2(C)[C@@H]1CC[C@@]13O[C@@H]1C1=C(CO)C(=O)O[C@]14O[C@@H]4[C@@H]23 | 31.7 | 37.4 | 33.8 | 40.5 | 31.7 | 36.4 | 29.8 | 25.5 | 24.9 | 30
9 | CC(C)CC(=O)NC(Nc1ccc(S(=O)(=O)Nc2ncccn2)cc1)(C(F)(F)F)C(F)(F)F | > 100 | > 100 | > 100 | > 100 | > 100 | > 100 | > 100 | > 100 | > 100 | > 100
10 | Oc1ccc2c(c1)-c1c(c3cc(O)ccc3n1CCN1CCOCC1)CC2 | 81.2 | 45.4 | > 100 | 32.6 | 30.6 | 70.5 | 53.3 | 54.4 | > 100 | 67.2
11 | O=[N+]([O-])c1ccc2c(c1)nc(Cc1ccccc1)n2C[C@@H]1CCCN2CCCCC12 (stereo not given in full) | > 100 | > 100 | > 100 | 33.2 | 31.4 | > 100 | 47.6 | > 100 | 62 | > 100
12 | COC(c1ccsc1)C(C#N)(C#N)N=Cc1ccsc1 (stereo not given) | 59.1 | 25.9 | 28.5 | 34 | 27.7 | 19.2 | 37.9 | 27.5 | 32.9 | 88
13 | CSC1=Nc2ccccc2-c2nc(-c3ccccc3)cc(-c3ccccc3)c2C1 | 30.6 | > 100 | > 100 | > 100 | 75.1 | 30 | 26 | > 100 | > 100 | > 100
14 | COc1cc(/C=C2\C[C@H]3[C@@H]4CC=C5C[C@@H](N6CCCC6)CC[C@]5(C)[C@H]4CC[C@]3(C)[C@H]2O)cc(OC)c1OC | 35.9 | 26.5 | 32.1 | 20.7 | 30 | 29.8 | 10.8 | 28.8 | 30.2 | 51.1
15 | CC1(C)O[C@H](C(=O)O)[C@@H](C(=O)O)O1 | > 100 | > 100 | > 100 | > 100 | > 100 | > 100 | > 100 | > 100 | > 100 | > 100
16 | O=C(NCC1Nc2ccncc2S(=O)(=O)N1)c1ccc(Br)cc1 (stereo not given) | > 100 | > 100 | > 100 | > 100 | > 100 | > 100 | > 100 | 51.4 | > 100 | > 100
17 | CC(C)OC(=O)c1ccc(NCC2=CC(=O)C=CC2=O)cc1Cl | > 100 | 18.6 | 42.3 | 32.8 | > 57.6 | 6.19 | > 48.3 | > 100 | 32.5 | 32
18 | Cc1cc(NS(=O)(=O)c2ccc(NC(=O)c3ccc4nc5ccccc5c(Nc5ccc(S(=O)(=O)N=C(N)N)cc5)c4c3)cc2)no1 | 41.6 | 29.3 | 32.3 | 30.8 | 30.5 | 33.6 | 30.6 | 39.3 | 30 | 31.4
19 | Cc1nc2c(cc1C(=O)NN)c(=O)n(C)c(=O)n2C | > 100 | > 100 | > 100 | > 100 | > 100 | > 100 | > 100 | > 100 | > 100 | > 100
20 | Brc1ccc2c(-c3nc(-c4c[nH]c5ccccc45)cs3)c[nH]c2c1 | > 100 | > 100 | > 100 | > 100 | 57.1 | > 100 | 81.1 | > 91.2 | > 100 | > 100
21 | CC1=NN(c2cccc(Cl)c2)C2(C1)C(Cl)C(=O)N2c1nc2ccccc2s1 (stereo not given) | 69.1 | > 100 | > 100 | > 100 | 44.4 | > 100 | 50.6 | 63.8 | > 100 | > 100
22 | CC/C(Cl)=N\OC(=O)Nc1ccc(OC)cc1 | 31.7 | 3.12 | 31.3 | 15.7 | 14.6 | 3.07 | 3.24 | 29.5 | 11.9 | 30.3
23 | O=C(O)Cc1ccc(Oc2nc3ccccc3nc2-c2cccs2)cc1 | > 100 | > 100 | > 100 | > 100 | > 100 | > 100 | > 100 | > 100 | > 100 | > 100
24 | CCCSc1cc(Cl)c(C)cc1S(=O)(=O)n1ccnc1OCCCN(C)C | > 100 | > 100 | > 100 | > 100 | > 100 | > 100 | > 100 | > 100 | > 100 | > 100
25 | O=c1c2ccccc2oc2c1ccc1ncccc12 | 34.4 | > 100 | 59.5 | > 100 | 28 | 34.5 | 48.9 | > 100 | 96.9 | 46.1
26 | Cc1ccccc1N=C(N)NC#N | > 100 | > 100 | > 100 | > 100 | > 100 | > 100 | > 100 | > 100 | > 100 | > 100
27 | O=C1C=Cc2c(Cl)sc(Cl)c21 | 28.5 | 3.14 | 5.29 | 13.8 | 8.09 | 4.57 | 2.44 | 4.83 | 16.8 | 37.1
28 | Cc1cc(S(=O)(=O)Nc2nc3ccsc3c(=O)n2N)c(S)cc1Cl | > 100 | > 100 | > 100 | > 100 | > 100 | > 100 | > 100 | > 100 | > 100 | > 100
